Measurements published in article PMC11831592, “Repurposing Linezolid in Conjunction with Histone Deacetylase Inhibitor Access in the Realm of Glioblastoma Therapies” (Journal of Medicinal Chemistry, 2025).
Read-outs that look alike come from different tables or passages of the source.

Tests used:
PT#3-R GBM cells = assay: Orthotopic PT#3-R transplant model, survival and HE staining; format: in vivo, mouse
Description: For orthotopic inoculation, CT-2A cells (1 × 10^5) or CT-2A-R (2 × 10^5) were suspended in 4 μL of DMEM and implanted into the brain of B6 mice. PT#3-R cells (5 × 10^5) were suspended in 4 μL of DMEM and implanted into the brain of SCID mice. After cell implantation, mice were monitored daily for survival, and their body weight was measured every 3 days starting from the seventh day. […] […] […] Upon the natural death of the mice, brains were extracted and entrusted to BioTools for sectioning and HE staining.

[1] = test system: DNA HR repair in U87MG cells; assay: Homologous recombination repair assay; format: cell-based, human; details: increasing drug concentrations
Description: For the DNA, HR repair assay continued to use our previous study.[30] U87MG cells were cotransfected at a 2:1 ratio using the […] reporter and DsRed-Monomer plasmids. Cells were harvested 2 days after transfection and subjected to flow cytometry analysis by a Guava EasyCyte System. Only DsRed-positive cells were analyzed for HR and NHEJ efficiencies to circumvent possible differences in transfection efficiencies. Data were analyzed to reveal the percentage of GFP-positive cells relative to those of DsRed-positive cells. Data were set to 1% of the background level of GFP-positive cells in every internal control.

[2] = test system: GBM, TMZ-resistant GBM, and patient-derived TMZ-resistant GBM cells; assay: CCK8 assay, GBM cell panel (range given); format: cell-based; details: read-out: IC50 values, range over GBM cells
Description: (§1) Cell viability and drug cytotoxicity were determined by a CCK-8 kit (Cell Counting Kit-8, CK04-13, MD, USA) (CCK8, C0005, Target Molecule Corp., MA, USA) reagent. Cells were seeded 2 × 10^3 per well in the 96-well plate for 24 h, followed by treating at different concentrations of compounds for 72 h. Before the experiment, CCK8 was 10-fold diluted with the culture medium and then incubated with cells for 30 min. Finally, the OD was 450 nm absorbance and calculated for cell viability.

T98G (MGMT-positive) = assay: CCK8 cell proliferation assay, T98G; format: cell-based; details: Homo sapiens, CCK8, 72 h
Description: as §1

[3] = Brain distribution study, UPLC of plasma and brain tissue extract; format: in vivo; details: mouse, ip, C57BL/6 mice, 360 mg/kg intraperitoneal
Description: The liquid chromatography was performed on an Acquity H class UPLC system (Waters Corp., Massachusetts, U.S.) equipped with an ACQUITY Premier PDA eλ detector (Waters Corp., Massachusetts, U.S.) with an autosampler temperature of 15 °C. Separation was performed at 25 °C on a Waters Acquity HSS T3 C18 column (2.1 mm × 100 mm, 1.8 μm particle size) with a gradient elution using A: water (containing 2 mM ammonium acetate and 0.1% formic acid) and B: acetonitrile as the mobile phase. The gradient program is as follows: 96% A (initial), 96% A (1 min), 65% A (7 min), 65% A (7.5 min), 96% A (8 min), and 96% A (12 min). The flow rate was set at 0.5 mL/min, and the injection volume was 3 μL. The UV wavelength was adjusted to 254 nm for compound 1 detection.
Following anesthesia of mice with isoflurane, blood samples were collected via a cardiac puncture. The blood was centrifuged at 2000g for 20 min at 4 °C to obtain plasma. Plasma samples were then mixed with an equal volume of 1 M zinc sulfate heptahydrate solution (cat. no. 221376, Sigma-Aldrich) and allowed to stand for 30 min. Subsequently, the mixture was centrifuged at 12,000g for 30 min at 4 °C, and the supernatant was collected for analysis. Brain tissues were homogenized using a Tenbroeck tissue grinder at a ratio of 5 μL of DMSO per mg of tissue. The homogenates were then centrifuged at 12,000g for 30 min at 4 °C, and the supernatant was collected for analysis.
Compound 1 was prepared in DMSO at a concentration of 180 mg/mL, and […] at 30 mg/mL. C57BL/6 mice were intraperitoneally injected with compound 1 at 360 mg/kg, TMZ at […], or DMSO at 2 μL/g as the control group. Mice were sacrificed by intraperitoneal injection after 30 min, and plasma as well as brain tissue extracts were collected following the aforementioned procedures.

U87MG-R = assay: CCK8 cell proliferation assay, U87MG-R; format: cell-based; details: Homo sapiens, CCK8, 72 h
Description: as §1

O=C(/C=C/c1ccc(CNC[C@H]2CN(c3ccc(N4CCOCC4)c(F)c3)C(=O)O2)cc1)NO [compound 1, (S,E)-3-(4-((((3-(3-Fluoro-4-morpholinophenyl)-2-oxooxazolidin-5-yl)methyl)ami-no)methyl)phenyl)-N-hydroxyacrylamide]
survival (Kaplan-Meier) (PT#3-R GBM cells; PT#3-R in SCID mice, 10 or 20 mg/kg with 10 mg/kg TMZ, intraperitoneal every 3 days from day 7): extend the survival rate | TMZ-resistant GBM cell growth in the brain (HE staining) (PT#3-R GBM cells; PT#3-R, post-mortem brain tissue sections): effective inhibition of TMZ-resistant GBM cell growth in the brain | DNA HR repair capability [1]: substantial decrease in DNA HR repair capability | IC50 [2]: 10.3 to 30.6 µM | IC50 (T98G (MGMT-positive)): 30.6 ± 0.56 µM | concentration at 30 min ([3]; brain, read-out: Brain conc.): 831 ng/mL | Kp at 0.5 h ([3]; brain/plasma, 30 min, read-out: brain/plasma (B/P) ratio): 1.27 | concentration at 30 min ([3]; plasma, read-out: Plasma conc.): 656 ng/mL | IC50 (U87MG-R): 16.6 ± 0.45 µM
